The source of these data is patent US20250198992A1, “IN VITRO METHODS” (HALEON CH SARL, priority 2022, published 2025).

Series [1] in a line: Non-specific adsorption of diclofenac on the OFM probes and tubing. Conditions: for the duration of the experiment (6 h); data not shown. How it is done:
Two test solutions of diclofenac diethyl amine salt (DDEA) and diclofenac sodium salt (DNa) were tested. […] Samples were collected in 1 h intervals. Syringes and Eppendorf® vials were used to deliver test solution to the OFM outlet sections and tubing, respectively. Samples from the syringes and from the Eppendorf® vials were taken at the start (t=0 h) and at the end (t=6 h) of the experiment to determine the concentration entering the OFM probe and tubing. Syringes, dosing needles, Eppendorf® vials, and pipette tips were coated with each test solution prior to use. For coating, the samples were filled with test solutions and maintained at room temperature for 30 min. Afterwards, the coating test solutions were discarded. Pipette tips underwent three cycles of filling and emptying of test solutions. The fourth filling of the pipette tip was used as the sample. Adsorption was assessed by comparing inflow to outflow concentrations. […] LLOQ was 10 ng mL^-1.

The conditions of series [2]: both, human.
Protocol: The skin was donated by male and female patients aged 28 to 63 years old undergoing abdominal plastic surgery at the Department for Plastic, Aesthetic, and Reconstructive Surgery of the Medical University Graz. […] The human skin explants were cleaned with gauze swabs and purified water and were subsequently stored frozen at −20° C.
The skin explants were thawed at room temperature for 12 h before the start of the study. They were fixed on a plate of extruded polystyrene wrapped in a medical underpad (MoliNea N, Paul Hartmann AG, Austria) and placed into a climate chamber (32° C./40-60% relative humidity) for 1 h before use. Ambient temperature and ambient relative humidity within the climate chamber were controlled throughout the experiment with a data logger with integrated temperature sensor and relative humidity sensor (175 H1 temperature and humidity data logger, Testo, Germany).
Cannulas (Sterican 20G, B.Braun, Germany) were inserted into the dermis and the subcutis of the skin explant. OFM probes (OFM-P0X-15, JR-HEALTH, Austria) were pushed through the cannulas. Afterwards, the cannulas were removed and the probes were fixed to the skin with cyanoacrylate (Cyanolit 241F, Panacol-Elosol GmbH, Germany). […]
The subject of series [3] is protein. The note with it: cited from earlier work.

Bounds are passed on as bounds.

On to `O=C(O)Cc1ccccc1Nc1c(Cl)cccc1Cl` [DDEA, diclofenac diethylammonium], for which, in series [1], the “stability in the stock solution” value is “stable”.

For `O=C(O)Cc1ccccc1Nc1c(Cl)cccc1Cl` [DNa, diclofenac sodium], the “concentration in recirculation probes higher than in control probes by” value in series [2] (28 h) is 9 ng/mL.

In series [2], `O=C(O)Cc1ccccc1Nc1c(Cl)cccc1Cl` [Diclofenac, diclofenac] showed a dilution factor of 13.9 fold. The protein binding in series [3] is on record as more than 99.8%.
